In US20260034123A1 (Cedilla Therapeutics, Inc., priority 2022, published 2026):

How the values were obtained:
Kuramochi cells RB-KO = assay: IncuCyte Kuramochi cell proliferation assay, RB-KO; assay type: cell-based; conditions: 72 hours, cell count, batch mean
Summary of the method: (§1)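 GI50 was derived by curve-fitting DMSO-normalized fold change in nuclear count between 0 and 72 h. Counts came from images of Kuramochi cells carrying mApple-H2B. Compounds were dosed over 10 points at 1/2-log spacing from a 20 µM top concentration.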

CDK2/Cyclin E1 = CDK2/Cyclin E1 (Homo sapiens, UniProt P24941); assay: ADP-Glo Luminescent Kinase Assay (CDK2/E1-37C); assay type: biochemical; conditions: 0.18 nM CDK2/Cyclin E1, 100 μM ATP, Histone H1, 37° C.; read-out: ADPGLO (CDK2/E1-37C): IC50
Summary of the method: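 IC50 fitted by four-parameter equation from ADP-Glo luminescence converted to % activity. Compounds were preincubated 60 min at 37 °C with enzyme, then kinase reaction ran 90 min at 37 °C with 0.18 nM enzyme, 100 μM ATP, Histone H1 ([…]), pH 7.5 HEPES, Mg2+, DTT.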

Kuramochi cells RB-WT = assay: IncuCyte Kuramochi cell proliferation assay, RB-WT; assay type: cell-based; conditions: 72 hours, cell count
Summary of the method: as §1

CC1(C)C[C@@H]1C(=O)N1CC2(CN(C(=O)c3cnn(Cc4ccc(F)cc4)c3)C[C@H]2COCc2cccc(C3CCC(F)(F)CC3)c2-c2nn[nH]n2)C1 [I′-43, ((S)-8-(((3-(4,4-difluorocyclohexyl)-2-(2H-tetrazol-5-yl)benzyl)oxy)methyl)-2-((S)-2,2-dimethylcyclopropane-1-carbonyl)-2,6-diazaspiro[3.4]octan-6-yl)(1-(4-fluorobenzyl)-1H-pyrazol-4-yl)methanone]
IC50 (Kuramochi cells RB-KO): 5 to 10 µM | IC50 (CDK2/Cyclin E1): ≤ 0.5 µM | IC50 (Kuramochi cells RB-WT): ≤ 0.5 µM

CS(=O)(=O)NC(=O)c1c(COC[C@@H]2CN(C(=O)c3cnn(Cc4ccc(F)cc4)c3)CC23CN(C(=O)C2(C(F)(F)F)CC2)C3)cccc1C1CCC(F)(F)CC1 [I′-44, (S)-2-(4,4-difluorocyclohexyl)-6-(((6-(1-(4-fluorobenzyl)-1H-pyrazole-4-carbonyl)-2-(1-(trifluoromethyl)cyclopropane-1-carbonyl)-2,6-diazaspiro[3.4]octan-8-yl)methoxy)methyl)-N-(methylsulfonyl)benzamide]
IC50 (Kuramochi cells RB-KO): > 10 µM | IC50 (CDK2/Cyclin E1): ≤ 0.5 µM | IC50 (Kuramochi cells RB-WT): 0.5 to 5 µM

CC(C)(C(=O)N1CC2(CN(C(=O)c3cnn(Cc4cc(F)cc(F)c4)c3)C[C@H]2COCc2cccc(C3CCC(F)(F)CC3)c2C(=O)O)C1)C(F)(F)F [I′-45, (S)-2-(((6-(1-(3,5-difluorobenzyl)-1H-pyrazole-4-carbonyl)-2-(3,3,3-trifluoro-2,2-dimethylpropanoyl)-2,6-diazaspiro[3.4]octan-8-yl)methoxy)methyl)-6-(4,4-difluorocyclohexyl)benzoic acid]
IC50 (Kuramochi cells RB-KO): > 10 µM | IC50 (CDK2/Cyclin E1): ≤ 0.5 µM | IC50 (Kuramochi cells RB-WT): 0.5 to 5 µM

O=C(O)c1c(/C=C/CC2CN(C(=O)c3cnn(Cc4ccc(F)cc4)c3)CC23CN(C(=O)C2(C(F)(F)F)CC2)C3)cccc1C1CCC(F)(F)CC1 (stereo not drawn) [I′-46]
IC50 (Kuramochi cells RB-KO): > 10 µM | IC50 (CDK2/Cyclin E1): 0.5 to 5 µM | IC50 (Kuramochi cells RB-WT): 5 to 10 µM

CC1CCC(c2cccc(COC[C@@H]3CN(c4cc(F)c(F)c5ncsc45)CC34CN(C(=O)C(C)(C)C(F)(F)F)C4)c2C(=O)O)CC1 (stereo partly drawn) [I′-47, (S)-2-(((6-(4,5-difluorobenzo[d]thiazol-7-yl)-2-(3,3,3-trifluoro-2,2-dimethylpropanoyl)-2,6-diazaspiro[3.4]octan-8-yl)methoxy)methyl)-6-(4-methylcyclohexyl)benzoic acid]
IC50 (Kuramochi cells RB-KO): > 10 µM | IC50 (CDK2/Cyclin E1): ≤ 0.5 µM | IC50 (Kuramochi cells RB-WT): > 10 µM

O=C(O)c1c(COC[C@@H]2CN(c3cc(C(F)(F)F)c(F)c4ncsc34)CC23CN(C(=O)C2(C(F)(F)F)CC2)C3)cccc1C1CCC(F)(F)CC1 [I′-48]
IC50 (Kuramochi cells RB-KO): > 10 µM | IC50 (CDK2/Cyclin E1): 5 to 10 µM | IC50 (Kuramochi cells RB-WT): ≤ 0.5 µM

O=C(O)c1c(COC[C@@H]2CN(c3cc(Cl)c(Cl)c4ncsc34)CC23CN(C(=O)C2(C(F)(F)F)CC2)C3)cccc1C1CCC(F)(F)CC1 [I′-49]
IC50 (Kuramochi cells RB-KO): > 10 µM | IC50 (CDK2/Cyclin E1): 0.5 to 5 µM | IC50 (Kuramochi cells RB-WT): > 10 µM

O=C(O)c1c(COC[C@@H]2CN(c3cc(F)c(F)c4nc(C(F)(F)F)sc34)CC23CN(C(=O)C2(C(F)(F)F)CC2)C3)cccc1C1CCC(F)(F)CC1 [I′-50]
IC50 (Kuramochi cells RB-KO): > 10 µM | IC50 (CDK2/Cyclin E1): > 10 µM | IC50 (Kuramochi cells RB-WT): > 10 µM

CC(C)(C(=O)N1CC2(CN(C(=O)c3cnn(Cc4cc(F)c(F)cc4F)c3)C[C@H]2COCc2cccc(C3CCC(F)(F)CC3)c2C(=O)O)C1)C(F)(F)F [I′-52, (S)-2-(4,4-difluorocyclohexyl)-6-(((2-(3,3,3-trifluoro-2,2-dimethylpropanoyl)-6-(1-(2,4,5-trifluorobenzyl)-1H-pyrazole-4-carbonyl)-2,6-diazaspiro[3.4]octan-8-yl)methoxy)methyl)benzoic acid]
IC50 (Kuramochi cells RB-KO): > 10 µM | IC50 (CDK2/Cyclin E1): ≤ 0.5 µM | IC50 (Kuramochi cells RB-WT): 0.5 to 5 µM

CC(C)(C(=O)N1CC2(CN(C(=O)c3cnn(Cc4cc(F)c(F)c(F)c4)c3)C[C@H]2COCc2cccc(C3CCC(F)(F)CC3)c2C(=O)O)C1)C(F)(F)F [I′-53]
IC50 (Kuramochi cells RB-KO): > 10 µM | IC50 (CDK2/Cyclin E1): ≤ 0.5 µM | IC50 (Kuramochi cells RB-WT): 0.5 to 5 µM

O=C(c1cnn(Cc2ccc(F)cc2)c1)N1C[C@@H](COCc2cccc(C3CCC(F)(F)CC3)c2-c2nn[nH]n2)C2(C1)CN(C(=O)C1(C(F)(F)F)CC1)C2 [I′-54, (S)-(8-(((3-(4,4-difluorocyclohexyl)-2-(2H-tetrazol-5-yl)benzyl)oxy)methyl)-2-(1-(trifluoromethyl)cyclopropane-1-carbonyl)-2,6-diazaspiro[3.4]octan-6-yl)(1-(4-fluorobenzyl)-1H-pyrazol-4-yl)methanone]
IC50 (Kuramochi cells RB-KO): > 10 µM | IC50 (CDK2/Cyclin E1): ≤ 0.5 µM | IC50 (Kuramochi cells RB-WT): 5 to 10 µM

O=C(c1cnn(Cc2ccc(F)cc2)c1)N1CC(COCc2cccc(C3CCC(F)(F)CC3)c2-c2noc(=O)[nH]2)C2(C1)CN(C(=O)C1(C(F)(F)F)CC1)C2 (stereo not drawn) [I′-55, 3-(2-(4,4-difluorocyclohexyl)-6-(((6-(1-(4-fluorobenzyl)-1H-pyrazole-4-carbonyl)-2-(1-(trifluoromethyl)cyclopropane-1-carbonyl)-2,6-diazaspiro[3.4]octan-8-yl)methoxy)methyl)phenyl)-1,2,4-oxadiazol-5(4H)-one]
IC50 (Kuramochi cells RB-KO): > 10 µM | IC50 (CDK2/Cyclin E1): ≤ 0.5 µM | IC50 (Kuramochi cells RB-WT): 5 to 10 µM

O=C(c1cnn(Cc2ccc(F)cc2)c1)N1CC(COCc2cccc(C3CCC(F)(F)CC3)c2C(=O)C(F)(F)F)C2(C1)CN(C(=O)C1(C(F)(F)F)CC1)C2 (stereo not drawn) [I′-56]
IC50 (Kuramochi cells RB-KO): > 10 µM | IC50 (CDK2/Cyclin E1): > 10 µM | IC50 (Kuramochi cells RB-WT): 0.5 to 5 µM

NC(=O)c1c(COC[C@@H]2CN(C(=O)c3cnn(Cc4ccccc4C(=O)O)c3)CC23CN(C(=O)C2(C(F)(F)F)CC2)C3)cccc1C1CCC(F)(F)CC1 [I′-57, (S)-2-((4-(8-(((2-carbamoyl-3-(4,4-difluorocyclohexyl)benzyl)oxy)methyl)-2-(1-(trifluoromethyl)cyclopropane-1-carbonyl)-2,6-diazaspiro[3.4]octane-6-carbonyl)-1H-pyrazol-1-yl)methyl)benzoic acid]
IC50 (Kuramochi cells RB-KO): 0.5 to 5 µM | IC50 (CDK2/Cyclin E1): ≤ 0.5 µM | IC50 (Kuramochi cells RB-WT): 5 to 10 µM

CC(C)(C(=O)N1CC2(CN(C(=O)c3cnn(Cc4ccc(F)c(F)c4)c3)C[C@H]2COCc2cccc(C3CCC(F)(F)CC3)c2C(=O)O)C1)C(F)(F)F [I′-58, (S)-2-(((6-(1-(3,4-difluorobenzyl)-1H-pyrazole-4-carbonyl)-2-(3,3,3-trifluoro-2,2-dimethylpropanoyl)-2,6-diazaspiro[3.4]octan-8-yl)methoxy)methyl)-6-(4,4-difluorocyclohexyl)benzoic acid]
IC50 (Kuramochi cells RB-KO): > 10 µM | IC50 (CDK2/Cyclin E1): ≤ 0.5 µM | IC50 (Kuramochi cells RB-WT): > 10 µM

NC(=O)c1c(COC[C@@H]2CN(c3cc(C(=O)O)cc4ncsc34)CC23CN(C(=O)C2(C(F)(F)F)CC2)C3)cccc1C1CCC(F)(F)CC1 [I′-59]
IC50 (Kuramochi cells RB-KO): > 10 µM | IC50 (CDK2/Cyclin E1): > 10 µM | IC50 (Kuramochi cells RB-WT): 0.5 to 5 µM

O=C(O)c1c(COCC2CN(Cc3cnn(Cc4ccc(F)cc4)c3)C(=O)C23CN(C(=O)C2(C(F)(F)F)CC2)C3)cccc1C1CCC(C(F)(F)F)CC1 (stereo not drawn) [I′-60]
IC50 (Kuramochi cells RB-KO): > 10 µM | IC50 (CDK2/Cyclin E1): > 10 µM | IC50 (Kuramochi cells RB-WT): > 10 µM

O=C(O)c1c(COC[C@@H]2CN(c3cc(F)c(F)c4[nH]ccc34)CC23CN(C(=O)C2(C(F)(F)F)CC2)C3)cccc1C1CCC(F)(F)CC1 [I′-61]
IC50 (Kuramochi cells RB-KO): > 10 µM | IC50 (CDK2/Cyclin E1): > 10 µM | IC50 (Kuramochi cells RB-WT): > 10 µM

O=C(O)c1c(COC[C@H]2CN(c3cc(F)c(F)c4ncsc34)CC23CN(C(=O)C2(C(F)(F)F)CC2)C3)cccc1C1CCC(F)(F)CC1 [I′-62]
IC50 (Kuramochi cells RB-KO): > 10 µM | IC50 (CDK2/Cyclin E1): 0.5 to 5 µM | IC50 (Kuramochi cells RB-WT): > 10 µM

O=C(c1cnn(Cc2ccc(F)cc2)c1)N1CC(COCc2cccc(C3CCC(F)(F)CC3)c2-c2n[nH]c(=O)o2)C2(C1)CN(C(=O)C1(C(F)(F)F)CC1)C2 (stereo not drawn) [I′-63, 5-(2-(4,4-difluorocyclohexyl)-6-(((6-(1-(4-fluorobenzyl)-1H-pyrazole-4-carbonyl)-2-(1-(trifluoromethyl)cyclopropane-1-carbonyl)-2,6-diazaspiro[3.4]octan-8-yl)methoxy)methyl)phenyl)-1,3,4-oxadiazol-2(3H)-one]
IC50 (Kuramochi cells RB-KO): > 10 µM | IC50 (CDK2/Cyclin E1): ≤ 0.5 µM | IC50 (Kuramochi cells RB-WT): > 10 µM

O=C(O)c1c(COCC2CN(c3ncnc4ncsc34)CC23CN(C(=O)C2(C(F)(F)F)CC2)C3)cccc1C1CCC(F)(F)CC1 (stereo not drawn) [I′-64, 2-(4,4-difluorocyclohexyl)-6-(((6-(thiazolo[4,5-d]pyrimidin-7-yl)-2-(1-(trifluoromethyl)cyclopropane-1-carbonyl)-2,6-diazaspiro[3.4]octan-8-yl)methoxy)methyl)benzoic acid]
IC50 (Kuramochi cells RB-KO): 0.5 to 5 µM | IC50 (CDK2/Cyclin E1): ≤ 0.5 µM | IC50 (Kuramochi cells RB-WT): 0.5 to 5 µM

CN(C)S(=O)(=O)NC(=O)c1c(COC[C@@H]2CN(C(=O)c3cnn(Cc4ccc(F)cc4)c3)CC23CN(C(=O)[C@H]2CC2(C)C)C3)cccc1C1CCC(F)(F)CC1 [I′-65, 2-(4,4-difluorocyclohexyl)-6-((((S)-2-((S)-2,2-dimethylcyclopropane-1-carbonyl)-6-(1-(4-fluorobenzyl)-1H-pyrazole-4-carbonyl)-2,6-diazaspiro[3.4]octan-8-yl)methoxy)methyl)-N—(N,N-dimethylsulfamoyl)benzamide]
IC50 (Kuramochi cells RB-KO): > 10 µM | IC50 (CDK2/Cyclin E1): ≤ 0.5 µM | IC50 (Kuramochi cells RB-WT): > 10 µM

CC(C)(C(=O)N1CC2(CN(C(=O)c3cnn(Cc4ccc(F)cc4)c3)C[C@H]2COCc2cccc(-c3ccc(C(F)(F)F)s3)c2C(=O)O)C1)C(F)(F)F [I′-66, (S)-2-(((6-(1-(4-fluorobenzyl)-1H-pyrazole-4-carbonyl)-2-(3,3,3-trifluoro-2,2-dimethylpropanoyl)-2,6-diazaspiro[3.4]octan-8-yl)methoxy)methyl)-6-(5-(trifluoromethyl)thiophen-2-yl)benzoic acid]
IC50 (Kuramochi cells RB-KO): > 10 µM | IC50 (CDK2/Cyclin E1): ≤ 0.5 µM | IC50 (Kuramochi cells RB-WT): ≤ 0.5 µM

COc1ccc(C2CCC(F)(F)CC2)c(C(=O)O)c1COCC1CN(C(=O)c2cnn(Cc3ccc(F)cc3)c2)CC12CN(C(=O)C1(C(F)(F)F)CC1)C2 (stereo not drawn) [I′-67]
IC50 (Kuramochi cells RB-KO): > 10 µM | IC50 (CDK2/Cyclin E1): ≤ 0.5 µM | IC50 (Kuramochi cells RB-WT): > 10 µM
